This note sets out measurements from ChEMBL document CHEMBL3867433, “Synthesis and antimicrobial activity of styryl/pyrrolyl/pyrazolyl sulfonylmethyl-1,3,4-oxadiazolyl amines and styryl/pyrrolyl/pyrazolyl sulfonylmethyl-1,3,4-thiadiazolyl amines” (2016).

Type in all cases: functional
In test [1] the test system is Aspergillus niger. In words: Antifungal activity against Aspergillus niger assessed as inhibition of spore germination at 100 ug/well after 48 hrs by agar well diffusion method. As to conditions: read-out: DIZ.
Test [2] deals with Aspergillus niger. In words: Antifungal activity against Aspergillus niger assessed as inhibition of spore germination at 50 ug/well after 48 hrs by agar well diffusion method. As to conditions: read-out: DIZ. For orientation: Agar diffusion results depend on both activity and mobility in agar.
Test [3] can be described thus: Antifungal activity against Penicillium chrysogenum assessed as inhibition of spore germination at 100 ug/well after 48 hrs by agar well diffusion method.
The nature of test [4]: Antifungal activity against Penicillium chrysogenum assessed as inhibition of spore germination at 12.5 ug/well after 48 hrs by agar well diffusion method.
In test [5] the test system is Klebsiella pneumoniae. In words: Antibacterial activity against Klebsiella pneumoniae at 100 ug/well after 24 hrs by agar well diffusion method. Conditions: read-out: DIZ.
Test [6] is described as follows: Antifungal activity against Penicillium chrysogenum assessed as inhibition of spore germination at 25 ug/well after 48 hrs by agar well diffusion method.
Test [7] can be described thus: Antifungal activity against Penicillium chrysogenum assessed as inhibition of spore germination at 50 ug/well after 48 hrs by agar well diffusion method.
Test [8] concerns Pseudomonas aeruginosa. The test can be described thus: Antibacterial activity against Pseudomonas aeruginosa at 100 ug/well after 24 hrs by agar well diffusion method. Conditions: read-out: DIZ.
The test system of test [9] is Pseudomonas aeruginosa. In words: Antibacterial activity against Pseudomonas aeruginosa at 50 ug/well after 24 hrs by agar well diffusion method. As to conditions: read-out: DIZ.
For test [10], the system named is Staphylococcus aureus. In words: Antibacterial activity against Staphylococcus aureus at 100 ug/well after 24 hrs by agar well diffusion method. Conditions: read-out: DIZ.
For test [11], the system named is Bacillus subtilis. In words: Antibacterial activity against Bacillus subtilis at 100 ug/well after 24 hrs by agar well diffusion method. Conditions: read-out: DIZ.
Test [12] relates to Klebsiella pneumoniae. In words: Antibacterial activity against Klebsiella pneumoniae at 50 ug/well after 24 hrs by agar well diffusion method. As to conditions: read-out: DIZ.
In test [13] the test system is Bacillus subtilis. In words: Antibacterial activity against Bacillus subtilis at 25 ug/well after 24 hrs by agar well diffusion method. As to conditions: read-out: DIZ.
In test [14] the test system is Bacillus subtilis. The test can be described thus: Antibacterial activity against Bacillus subtilis at 12.5 ug/well after 24 hrs by agar well diffusion method. Conditions: read-out: DIZ.
The test system of test [15] is Bacillus subtilis. The test can be described thus: Antibacterial activity against Bacillus subtilis at 50 ug/well after 24 hrs by agar well diffusion method. As to conditions: read-out: DIZ.
In test [16] the test system is Pseudomonas aeruginosa. The test can be described thus: Antibacterial activity against Pseudomonas aeruginosa at 12.5 ug/well after 24 hrs by agar well diffusion method. Conditions: read-out: DIZ.
Test [17] relates to Klebsiella pneumoniae. The test can be described thus: Antibacterial activity against Klebsiella pneumoniae at 25 ug/well after 24 hrs by agar well diffusion method. As to conditions: read-out: DIZ.
Test [18] has as its system Aspergillus niger. The test can be described thus: Antifungal activity against Aspergillus niger assessed as inhibition of spore germination at 25 ug/well after 48 hrs by agar well diffusion method. Conditions: read-out: DIZ.
Test [19] deals with Pseudomonas aeruginosa. The test can be described thus: Antibacterial activity against Pseudomonas aeruginosa at 25 ug/well after 24 hrs by agar well diffusion method. As to conditions: read-out: DIZ.
Test [20] concerns Klebsiella pneumoniae. The test can be described thus: Antibacterial activity against Klebsiella pneumoniae at 12.5 ug/well after 24 hrs by agar well diffusion method. As to conditions: read-out: DIZ.
The test system of test [21] is Staphylococcus aureus. The test can be described thus: Antibacterial activity against Staphylococcus aureus at 50 ug/well after 24 hrs by agar well diffusion method. As to conditions: read-out: DIZ.

Consider `Nc1nnc(CS(=O)(=O)C2=NNCC2c2ccccc2)s1` (configuration not stated), for which the zone of inhibition at 100 µg/disc with Aspergillus niger [1] worked out at 9 mm. Also, the zone of inhibition at 50 µg/disc in the test on Aspergillus niger [2] worked out at 7 mm. The inhibition zone (IZ) in test [3] came to 12 mm.
Take `Cc1ccc(-c2c[nH]cc2S(=O)(=O)Cc2nnc(N)o2)cc1`: the zone of inhibition at 100 µg/disc came to 9 mm in the test with Aspergillus niger [1]; 12 mm with Klebsiella pneumoniae [5]; 11 mm with Pseudomonas aeruginosa [8]; 10 mm with Staphylococcus aureus [10]; 10 mm with Bacillus subtilis [11]. Besides, the zone of inhibition at 50 µg/disc is 7 mm with Aspergillus niger [2] and 10 mm in the test on Pseudomonas aeruginosa [9]. Besides, the inhibition zone (IZ) in test [4] was 8 mm; in test [6], 10 mm; in [7] it was 12 mm; in test [3], 14 mm.
Turning to `Cc1ccc(C2CNN=C2S(=O)(=O)Cc2nnc(N)s2)cc1` (configuration not stated), the zone of inhibition at 100 µg/disc in the test with Aspergillus niger [1] worked out at 8 mm. Besides, in the test with Aspergillus niger [2], the zone of inhibition at 50 µg/disc amounted to 4 mm. Besides, in test [3], the inhibition zone (IZ) worked out at 11 mm.
`Nc1nnc(CS(=O)(=O)c2n[nH]cc2-c2ccccc2)o1`: the zone of inhibition at 50 µg/disc in the test with Klebsiella pneumoniae [12] was 14 mm; with Aspergillus niger [2], 11 mm; in the test on Bacillus subtilis [15], 11 mm; in the test with Pseudomonas aeruginosa [9], 15 mm; in the test on Staphylococcus aureus [21] it was 10 mm. In addition, the zone of inhibition at 100 µg/disc is 13 mm with Aspergillus niger [1]; 16 mm in the test on Klebsiella pneumoniae [5]; 17 mm in the test on Pseudomonas aeruginosa [8]; 14 mm with Staphylococcus aureus [10]; 15 mm with Bacillus subtilis [11]. In addition, the zone of inhibition at 25 µg/disc in the test with Bacillus subtilis [13] came to 9 mm; in the test with Klebsiella pneumoniae [17], 12 mm; with Aspergillus niger [18], 9 mm; in the test with Pseudomonas aeruginosa [19] it was 13 mm. Further, the zone of inhibition at 12.5 µg/disc with Bacillus subtilis [14] amounted to 7 mm; with Pseudomonas aeruginosa [16], 11 mm; in the test on Klebsiella pneumoniae [20], 10 mm. Moreover, the inhibition zone (IZ) in [6] is 12 mm; in test [7], 14 mm; in test [3], 16 mm.
As for `Cc1ccc(-c2c[nH]nc2S(=O)(=O)Cc2nnc(N)o2)cc1`, the zone of inhibition at 50 µg/disc with Klebsiella pneumoniae [12] is 12 mm; with Aspergillus niger [2] it was 10 mm; with Bacillus subtilis [15] it was 9 mm; in the test on Pseudomonas aeruginosa [9], 12 mm. In addition, the zone of inhibition at 100 µg/disc in the test with Aspergillus niger [1] was found to be 10 mm; in the test on Klebsiella pneumoniae [5] it was 14 mm; in the test on Pseudomonas aeruginosa [8], 14 mm; with Staphylococcus aureus [10], 12 mm; in the test on Bacillus subtilis [11] it was 11 mm. Besides, the zone of inhibition at 25 µg/disc with Bacillus subtilis [13] is 7 mm; with Aspergillus niger [18], 8 mm; with Pseudomonas aeruginosa [19], 10 mm. Besides, the results for the zone of inhibition at 12.5 µg/disc in the test with Bacillus subtilis [14] and in the test with Pseudomonas aeruginosa [16] were 6 mm and 9 mm, respectively. The values for the inhibition zone (IZ) in [7] and in [3] were 11 mm and 14 mm, respectively.
For `Nc1nnc(CS(=O)(=O)C2=NNCC2c2ccc(Cl)cc2)s1` (configuration not stated), in the test on Aspergillus niger [1], the zone of inhibition at 100 µg/disc came out at 11 mm. Moreover, the zone of inhibition at 50 µg/disc in the test with Aspergillus niger [2] was 10 mm. Further, the inhibition zone (IZ) is 10 mm in [7] and 13 mm in [3].
Turning to `Nc1nnc(CS(=O)(=O)c2c[nH]cc2-c2ccccc2)o1`, the zone of inhibition at 50 µg/disc was found to be 11 mm with Klebsiella pneumoniae [12], 10 mm in the test with Aspergillus niger [2] and 12 mm in the test on Pseudomonas aeruginosa [9]. Moreover, the zone of inhibition at 100 µg/disc in the test with Aspergillus niger [1] stood at 12 mm; in the test with Klebsiella pneumoniae [5], 13 mm; with Pseudomonas aeruginosa [8] it was 14 mm; in the test on Staphylococcus aureus [10] it was 11 mm; with Bacillus subtilis [11] it was 12 mm. For the same compound, the inhibition zone (IZ) in test [4] came out at 11 mm; in test [6], 12 mm; in test [7], 14 mm; in [3], 16 mm. In the test with Pseudomonas aeruginosa [16], the zone of inhibition at 12.5 µg/disc was 8 mm. Moreover, the zone of inhibition at 25 µg/disc in the test with Aspergillus niger [18] came to 8 mm; with Pseudomonas aeruginosa [19] it was 10 mm.
